Reference: patent US20260258420A1, “COMPOSITIONS AND METHODS FOR THE TREATMENT OF HUMAN PAPILLOMAVIRUS-DRIVEN CANCERS” (priority 2023, published 2026)

Experiments:
[1] = tested on: 17 HPV-negative HNSCC and cervical squamous cancer cell lines; assay: High-throughput drug screen (HTDS), cell death by AOC_LD, HPV-negative cell lines; format: cell-based
Description: (§1) The concordance correlation coefficient was computed to assess the reproducibility of the normalized growth rates of the 2 replicates. […] A chi-square test was applied to compare drug classification and the cluster membership. The Fisher exact test was applied to compare mutations status (wild-type and mutant) and drugs' response data (sensitive and resistant).
(§2) The effects of 864 unique drugs from 51 classes was tested in 16 HPV-positive and 17 HPV-negative HNSCC and cervical squamous cancer cell lines (Table 2) that were characterized previously (Kaiu, et al., Oncotarget 2017; 8(49):86369-83).

[2] = tested on: 16 HPV-positive HNSCC and cervical squamous cancer cell lines; assay: High-throughput drug screen (HTDS), cell death by AOC_LD, HPV-positive cell lines; format: cell-based
Description: as §1, §2

[3] = tested on: 3 HPV-positive and 3 HPV-negative cell lines; assay: Immunoblot of cleaved PARP and cleaved caspase-3; format: cell-based; conditions: 72 hours or 2 doubling times
Description: BrdU positive apoptotic cells were detected and quantified. The bar graph indicates the percentage of apoptotic cells with fragmented DNA in HPV-positive and HPV-negative cell lines. Values are the means±the standard deviations for 3 independent experiments. FIG. 2B and FIG. 2C show immunoblots of cleaved PARP (Cl. PARP) and cleaved caspase-3 (Cl. […] UM47, UMSCC47; GAPDH, glyceraldehyde 3-phosphate dehydrogenase. Western blot analysis was performed as described previously (Ferrarotto, et al., Clin Cancer Res 2016; 22(7):1674-86). In brief, cells were lysed with ice-cold lysis buffer, and the lysates were centrifuged at 20,000×g for 10 minutes at 4° C. Cell lysates containing equal amounts of protein were resolved using sodium dodecyl sulfate-polyacrylamide gel electrophoresis, transferred to nitrocellulose membranes, and incubated with different primary antibodies. Protein expression was detected using a horseradish peroxidase-conjugated secondary antibody (Bio-Rad, Hercules, CA) and electrochemiluminescence reagent (Amersham Biosciences, Pittsburgh, PA).

[4] = tested on: PDX tumors HOSC144, HOSC19, HOSC156 (p16-positive oropharynx cancer); assay: In vivo tumor growth study, HPV-positive PDX models; set-up: species or system nude mice
Description: PDX tumors HOSC144 (FIG. 3A, FIG. 3E, FIG. 3F), HOSC19 (FIG. 3B), and HOSC156 (FIG. 3C) were implanted into the flanks of nude mice. After engraftment, mice were randomized and assigned into 1 of 2 treatment groups: vehicle (β-cyclodextrin, n=8) or alisertib (10 mg/kg, n=8). Mice were treated for 3 weeks by daily oral gavage. Tumor size was measured twice a week. FIG. 3A, FIG. 3B, and FIG. 3C show in vivo tumor growth curves for individual mice (left 3 panels). Survival (right panels) was measured using the Kaplan-Meier method. In FIG. 3D, HPV-negative UMSCC22A cells were injected subcutaneously (3×10^6 cells) on the right flanks of the mice. Once the tumor volume reached ≥60 mm^3, mice were randomized into treatment groups. Mice were treated with vehicle or 10 mg/kg alisertib by oral gavage for 5 days per week for 21 days. Tumor size was measured twice a week. […] The Ki67(%) was calculated as the ratio of proliferative cells to total cells in each field, using five random fields. […] The apoptotic (%) was calculated as the ratio of apoptotic cells to total cells in each field, using five random fields in HOSC144 PDX tumors after 8 or 21 days of treatment with either vehicle or alisertib. ** P≤0.01; *** P≤0.001. Bars, 100 μM.
The in vivo tumor growth study was performed in accordance with the Guide for the Care and Use of Laboratory Animals of the National Institutes of Health and approved by MD Anderson's Institutional Animal Care and Use Committee. The PDX models were generated as described previously (Peng, et al., J Transl Med 2013; 11:198), and subjected to qPCR as described to determine the HPV type (Chaturvedi, et al., The Journal of Infectious Diseases 2014; 210(3):441-7; Fakhry, et al, JAMA Oncol 2019; 5(7):985-92). Briefly, tumor tissue was cut into small fragments (5-6 mm) and implanted subcutaneously into the flanks of nude mice. The skin incisions were closed with skin clips that were removed after 10 to 15 days. Once tumors reached an average of 150 to 300 mm^3, the mice were randomized into either vehicle group or alisertib group. Alisertib (Takeda Pharmaceuticals, Lexington, MA; 10 mg/kg in 10% β-cyclodextrin) was administered via oral gavage once daily on a weekly schedule of 6 days on and 1 day off. Tumors were monitored daily, and tumor volume (length×width^2×0.5) was evaluated twice per week with digital calipers. Mice were euthanized when tumors reached 2000 mm^3. The endpoint for the survival studies was the tumor burden. Survival was measured using the Kaplan-Meier method. Survival curve analysis was performed with GraphPad Prism software version 9 (RRID:SCR_002798).
To test the effect of Aurora kinase inhibition in vivo, three patient-derived xenograft (PDX) models that were derived from patients with p16-positive oropharynx cancer [HOSC144 (HPV16, HPV52), HOSC19 (HPV18, HPV59), and HOSC 156 (HPV18)], were implanted in nude mice. A low dose of alisertib (10 mg/kg) was administered continuously for 3 weeks. […] In addition, an HPV-negative cell line with high Rb protein levels was also tested and it was observed that it was resistant to alisertib treatment (FIG. 3D).

[5] = tested on: 2 HPV-positive cell lines with TRIP13 overexpression; assay: Apoptosis with TRIP13 overexpression, HPV-positive cells; format: cell-based; conditions: 300 nmol/L, 24 or 32 hours
Description: FIG. 5A, two HPV-positive cell lines (CASKI and SIHA) were transfected with BUB1B or MAD2L1 siRNA and then treated for 24 hours with 300 nmol/L alisertib before lysis and immunoblotting with the indicated antibodies. FIG. 5B, TRIP13 was transiently overexpressed (Ox) in 2 HPV-positive cell lines that were treated for 24 hours with 300 nmol/L alisertib before lysis and immunoblotting for the indicated proteins. FIG. 5C, HPV-positive cell lines with TRIP13 overexpression were treated with 300 nmol/L alisertib for 32 hours and then stained for annexin V-PE/7AAD staining and analysis with flow cytometry to measure apoptosis. The bar graph represents the ratio of apoptosis (late plus early) among different groups. Values are the means±the standard deviations for 3 independent experiments. ** P≤0.01; *** P≤0.001; unpaired, 2-tailed Student t-test. FIG. 5D, HN31 (left panel) and MDA886LN (right panel) cells expressing RB1 or control shRNA were transfected with a plasmid for TRIP13. After 24 hours, cells were treated with 300 nmol/L alisertib and then lysed for immunoblotting. Cl, cleaved; Fl, full length; GAPDH, glyceraldehyde 3-phosphate dehydrogenase.
In normal cells, prolonged mitosis resulting from Mad2 overexpression can lead to G1 arrest or mitotic cell death, so it is unclear why Mad2 overexpression is tolerated in HPV-positive cancers. […]

[6] = sensitive = AOC_LD greater than 0
[7] = HOSC144 tumors, days 8 and 21, vs vehicle

`COc1cc(Nc2ncc3c(n2)-c2ccc(Cl)cc2C(c2c(F)cccc2OC)=NC3)ccc1C(=O)O` [ALISERTIB, alisertib] was tested, and the “HPV negative Resistant (number of cell lines)” value ([1]; resistant = AOC_LD 0) was 16, the “HPV negative Sensitive (number of cell lines)” value [1, 6] was 1 and the “HPV positive Resistant (number of cell lines)” value ([2]; resistant = AOC_LD 0) was 6. For the same compound, the “HPV positive Sensitive (number of cell lines)” value [2, 6] was 10, the “caspase-3 activation and PARP cleavage” value [3] was “selective caspase-3 activation and PARP cleavage in HPV-positive cancer cell lines” and the “response after treatment was stopped” value ([4]; 10 mg/kg oral gavage, 3 weeks) was “sustained response”. The tumor growth ([4]; 10 mg/kg oral gavage, 3 weeks) was “clear evidence of tumor regression”, the survival duration ([4]; 10 mg/kg oral gavage, 3 weeks, Kaplan-Meier) was “concordant increase in survival duration” and the “Ki67 staining in tumors” value [4, 7] was “significantly lower levels of Ki67 staining”. The “cleaved caspase-3 in tumors” value [4, 7] was “increased levels of cleaved caspase-3” and the “apoptosis with TRIP13 overexpression (PARP and caspase-3 cleavage, annexin V)” value [5] was “partial rescue”.
